“Also recorded” adds a separate entry of the source.
What was measured:
Fbn1^C1039G/+ mice [1] = test: Aortic root and ascending aortic growth by echocardiography (Examples 6-8); type: in vivo
Description: (§1) All mice were cared for under strict compliance with the Animal Care and Use Committee of the Johns Hopkins University School of Medicine. The Smad4 haploinsufficient mice were a generous gift from Dr. Chuxia Deng (NIH/NIDDK, Bethesda). The Fbn1^C1039G/+ line was maintained on a C57BL/6 background, allowing for valid comparisons. In order to further accommodate the potential for temporal- or background-specific variation in genetic or pharmacological manipulation experiments, all comparisons were made between contemporary littermates. Mice were checked daily for death and all mice found dead were immediately necropsied to assess for evidence of aortic dissection. Mice were killed with an inhalation overdose of halothane (Sigma-Aldrich, St. Louis). Mice underwent immediate laparotomy, descending abdominal aortic transection, and PBS (pH 7.4) infusion through the left ventricle to flush out the blood. For Western blot analysis, the proximal ascending aorta (root to right brachiocephalic trunk) was removed, flash frozen in liquid nitrogen and stored at −80° C. Following PBS infusion, mice analyzed for aortic histology had latex injected under low pressure into the left ventricular apex until it was visible in the descending abdominal aorta. The mice were then fixed for 24 hours in 10% buffered formalin, after which the heart and aorta were removed and stored in 70% ethanol.
Mouse monoclonal TGFβNAb (1d11; R&D Systems, Minneapolis) was reconstituted in PBS and administered via intraperitoneal injection 3 times a week at a dose of 5 mg/kg. Treatment was initiated at 1 month of age and continued for 2 months. IgG (Zymed Laboratories Inc, San Francisco) was reconstituted in PBS, and administered at a dose of 10 mg/kg as a control. SP600125 (Sigma-Aldrich, St. Louis) was reconstituted in 10% DMSO dissolved in PBS, and administered twice daily by intraperitoneal injection, at a dose of 30 mg/kg. Treatment was initiated at 1 month of age and continued for 2 months. 10% DMSO dissolved in PBS was administered as a control. RDEA119 was reconstituted in 10% 2-hydroxypropyl-beta-cyclodextrin (Sigma-Aldrich, St. Louis) dissolved in PBS, and administered twice daily by oral gavage at a dose of 25 mg/kg. Treatment was initiated at 2 months of age and continued for 2 months. 10% 2-hydroxypropyl-beta-cyclodextrin dissolved in PBS was administered as a control. Fasudil was dissolved in drinking water, and administered at a dose of 1 mg/kg body weight per day. Treatment was initiated at 2 months of age and continued for 4 months. Drinking water was administered as a control.
Nair hair removal cream was used on all mice the day prior to echocardiography. All echocardiograms were performed on awake, unsedated mice using the Visualsonics Vevo 660 V1.3.6 imaging system and a 30 MHz transducer. The aorta was imaged using a parasternal long axis view. Three separate measurements of the maximal internal systolic dimension at the sinus of Valsalva and proximal ascending aorta were made, and a mean was calculated. All imaging and measurements were performed by a cardiologist who was blinded to genotype and treatment arm. In the TGFβNAb and SP600125 trials, mice were imaged at 1 month (baseline) and 3 months of age, after which they were killed. In the RDEA119 trial, mice were imaged at 2 months (baseline) and 4 months of age, after which they were killed. In the fasudil trial, mice were imaged at 2 months (baseline) and 6 months of age, after which they were killed. Smad4 haploinsufficient mice were imaged at 1 month, and then every 2 months thereafter, until death or sacrifice.

WT mice = test: Aortic root growth by echocardiography, WT mice (Examples 6-8); type: in vivo; details: 1 mg/kg per day in drinking water, 4 months, FIG. 18
Description: as §1
Mouse monoclonal TGFβNAb (1d11; R&D Systems, Minneapolis) was reconstituted in PBS and administered via intraperitoneal injection 3 times a week at a dose of 5 mg/kg. Treatment was initiated at 1 month of age and continued for 2 months. IgG (Zymed Laboratories Inc, San Francisco) was reconstituted in PBS, and administered at a dose of 10 mg/kg as a control. […]
Nair hair removal cream was used on all mice the day prior to echocardiography. […] Three separate measurements of the maximal internal systolic dimension at the sinus of Valsalva and proximal ascending aorta were made, and a mean was calculated. […]

ERK1/2 = test: Western blot of aortic root and proximal ascending aorta: ERK1/2 activation (Examples 4-5); type: in vivo, mice; details: Fbn1^C1039G/+ mice, FIG. 10B
Description: (§2) All mice were cared for under strict compliance with the Animal Care and Use Committee of the Johns Hopkins University School of Medicine. The Fbn1^C1039G/+ and AT2KO lines were maintained n a pure C57BL/6 background (backcrossed for greater than 9 generations), allowing for valid comparisons. In order to further accommodate the potential for temporal- or background-specified variation, all comparisons were made between contemporary littermates when possible. The AT21C0 mice were obtained as a generous gift from Dr. Inagami (T. Ichiki et al., Nature 377, 748 (1995)). The Agtr2 gene resides on the X chromosome and therefore we used either male mice carrying the mutated allele (who are hemizygous) or homozygous females, both of which have been previously shown to be functionally null for the AT2 receptor (T. Ichiki et al., Nature 377, 748 (1995)). Mice were sacrificed with an inhalation overdose of halothane (Sigma-Aldrich, St. Louis). Mice underwent immediate laparotomy, descending abdominal aortic transection, and PBS (pH 7.4) was infused through the right and left ventricles to flush out the blood. Mice that were analyzed for Western Blot analysis had their proximal ascending aortas (root to right brachiocephalic trunk) immediately dissected out, flash frozen in liquid nitrogen and stored at −80d until further processing. Mice that were analyzed for aortic histology had latex injected under low pressure into the left ventricular apex until it was visible in the descending abdominal aorta. Mice that were analyzed for lung histology had their trachea intubated with a 20-gauge blunted needle, and 0.5% agar was infused under a low and constant pressure to gradually inflate the lungs. […]
(§3) Mouse aortic root and ascending aortas (aortic root excluding the aortic valve to origin of right brachiocephalic trunk) were harvested, snap-frozen in liquid nitrogen and stored at −80° C. until processed. […] Equal protein loading of samples was determined by a protein assay (BioRad, CA), and confirmed by probing with antibodies against β-Actin or GAPDH (Sigma, Mo.). […]

Fbn1^C1039G/+ mice [2] = test: Aortic wall architecture score (VVG staining); type: in vivo
Experimental: Latex-infused ascending aortas were transected just above the level of the aortic valve, and 2-3 mm transverse sections were mounted in 4% agar prior to paraffin fixation. Five micrometer aortic sections underwent Verhoeff-van Giesen (VVG) staining and were imaged at 40× magnification, using a Nikon Eclipse E400 microscope. Wall thickness of the aortic media was measured by a single blinded observer at 16 different locations around the most proximal ascending aortic ring and averaged. Wall architecture of 4 representative sections for each mouse was assessed by the same 3 blinded observers and graded on an arbitrary scale of 1 (indicating no breaks in the elastic fiber) to 5 (indicating diffuse fragmentation), and the results were averaged. Elastic fiber content was quantified in four separate representative images of each section of the most proximal ascending aorta by a single blinded observer, using NIS Elements Advanced Research (Nikon, Japan). The aortic media and the elastic fibers were individually outlined and their areas calculated. The respective areas were averaged from all the images of a given aortic section and the ratio of elastic fiber content to total aortic media was determined. Individual lobes of the lungs were mounted in 4% agar and fixed in paraffin. Five micrometer lung sections underwent hematoxylin and eosin staining and were imaged at 10× magnification, using a Nikon Eclipse E400 microscope. Five fields were analyzed for each lobe of each lung by a single blinded observer, and a mean linear intercept was calculated using a previously described method (J. P. Habashi et al., Science 312, 117 (2006); and E. R. Neptune et al., Nat. Genet. 33, 407 (2003)).

p38 = test: Western blot of proximal ascending aorta: p38 activation (Examples 4-5); type: in vivo, mice; details: Fbn1^C1039G/+ mice, FIG. 13
Description: as §2, §3

Smad2 = test: Western blot of aortic root and proximal ascending aorta: Smad2 activation (Examples 4-5); type: in vivo, mice; details: Fbn1^C1039G/+ mice, FIG. 10B
Description: (§4) All mice were cared for under strict compliance with the Animal Care and Use Committee of the Johns Hopkins University School of Medicine. The Fbn1^C1039G/+ and AT2KO lines were maintained n a pure C57BL/6 background (backcrossed for greater than 9 generations), allowing for valid comparisons. In order to further accommodate the potential for temporal- or background-specified variation, all comparisons were made between contemporary littermates when possible. The AT21C0 mice were obtained as a generous gift from Dr. Inagami (T. Ichiki et al., Nature 377, 748 (1995)). The Agtr2 gene resides on the X chromosome and therefore we used either male mice carrying the mutated allele (who are hemizygous) or homozygous females, both of which have been previously shown to be functionally null for the AT2 receptor (T. Ichiki et al., Nature 377, 748 (1995)). Mice were sacrificed with an inhalation overdose of halothane (Sigma-Aldrich, St. Louis). Mice underwent immediate laparotomy, descending abdominal aortic transection, and PBS (pH 7.4) was infused through the right and left ventricles to flush out the blood. Mice that were analyzed for Western Blot analysis had their proximal ascending aortas (root to right brachiocephalic trunk) immediately dissected out, flash frozen in liquid nitrogen and stored at −80d until further processing. Mice that were analyzed for aortic histology had latex injected under low pressure into the left ventricular apex until it was visible in the descending abdominal aorta. Mice that were analyzed for lung histology had their trachea intubated with a 20-gauge blunted needle, and 0.5% agar was infused under a low and constant pressure to gradually inflate the lungs. The trachea was then tied-off using vicryl and the needle was removed. Mice were fixed for 24 hours in 10% buffered formalin, after which the heart, aorta and lungs were removed and stored in 70% ethanol.
Mouse aortic root and ascending aortas (aortic root excluding the aortic valve to origin of right brachiocephalic trunk) were harvested, snap-frozen in liquid nitrogen and stored at −80° C. until processed. Protein was extracted using the reagents and protocol from a Total Protein Extraction Kit containing protease inhibitor and Protein Phosphatase Inhibitor Cocktail (Millipore, MA). Aortas were homogenized using a pellet pestle motor (Kimble-Kontes, NJ) as per the extraction kit protocol. […] Equal protein loading of samples was determined by a protein assay (BioRad, CA), and confirmed by probing with antibodies against β-Actin or GAPDH (Sigma, Mo.). […] Blots were then washed in PBS-T, developed using SuperSignalWest HRP substrate (Pierce Scientific, IL), exposed to BioMax Scientific Imaging Film (Sigma, Mo.) and quantified using Imaged analysis software (NIH, MD).

JNK1 = test: Western blot of proximal ascending aorta: JNK1 activation (Examples 4-5); type: in vivo, mice; details: Fbn1^C1039G/+ mice, FIG. 13
Description: as §2, §3

Fbn1^C1039G/+ mice [3] = test: Aortic root growth by echocardiography, 7 months of treatment (Examples 3-5); type: in vivo; details: for Final absolute aortic root diameter: 7 months of treatment; for Aortic root growth over 7 months of treatment: versus placebo, drug in drinking water from 8 weeks of age
Experimental: A head-to-head comparison of ACEi versus ARBs was performed. Fbn1^C1039G/+ mice and WT littermates were treated with hemodynamically equivalent doses (FIG. 8) of either the ACEi enalapril (10 to 15 mg/kg of body weight per day) or the ARB losartan (40 to 60 mg/kg per day) (R. D. Patten et al., Clin. Sci 104, 109 (2003)), beginning at 8 weeks of age, and were assessed with serial echocardiograms. […] It is noteworthy that losartan reduced aortic root growth in Fbn1^C1039G/+ mice, but had no effect in WT littermates (P=0.27). […] Whether AT2 signaling is needed to achieve losartan's full therapeutic benefit was assessed. AT2KO:Fbn1^C1039G/+ mice were treated with losartan from 8 weeks of age and followed by serial echocardiography until they were killed at 9 months of age (FIG. 2C).
as §4
(§5) Mice were started on medication at 8 weeks of age and continued for 7 months. Losartan was dissolved in drinking water and filtered to reach a concentration of 0.6 g/L, giving an estimated daily dose of 40-60 mg/kg/day. Enalapril was dissolved in drinking water and filtered to reach a final concentration of 0.15 g/L, giving an estimated daily dose of 10-15 mg/kg/day. […] Spironolactone was dissolved in drinking water and filtered to give an estimated dose of 20 mg/kg/day, a dose previously shown to have in-vivo phenotypic benefit in cardiovascular disease states (S. Sakurabayashi-Kitade et al., Atherosclerosis 206, 54 (2009)). Placebo-treated animals received regular drinking water. Blood pressures were analyzed by taking 20 tail cuff blood pressures per day over 5 days in each mouse to habituate the mice to the tail cuff pressure system, and the blood pressures obtained on the last day were averaged. At least 4 mice for each treatment group were analyzed.
Nair hair removal cream was used on all mice the day prior to echocardiograms. All echocardiograms were performed on awake, unsedated mice using the Visualsonics Vevo 660 V1.3.6 imaging system and a 30 MHz transducer. Mice were imaged at baseline, 1 month after treatment and then every two months until the time of sacrifice. […]

Fbn1^C1039G/+ mice [4] = test: Systolic blood pressure by tail cuff; type: in vivo; details: compared to placebo-treated animals, FIG. 8
Experimental: as §5

Structure (SMILES)	Absolute final aortic root diameter (Fbn1^C1039G/+ mice [1]; 1 mg/kg per day in drinking water, 4 months, FIG. 18)	Aortic root growth over 4 months (Fbn1^C1039G/+ mice [1]; fasudil trial)	Absolute final aortic root diameter (WT mice)	ERK1/2 activation (ERK1/2)	Aortic wall architecture score (Fbn1^C1039G/+ mice [2]; FIG. 9)	Aortic wall architecture score (Fbn1^C1039G/+ mice [2]; FIG. 9, listed as Enalapril)	p38 activation (p38)	Smad2 activation (Smad2)	Smad2 activation (Smad2; listed as Enalapril)	JNK1 activation (JNK1)	Final absolute aortic root diameter (Fbn1^C1039G/+ mice [3]; FIG. 2B, mean +/- 2 SEM)	Aortic root growth over 7 months of treatment (Fbn1^C1039G/+ mice [3])	Aortic root growth over 7 months of treatment (Fbn1^C1039G/+ mice [3]; listed as Enalapril)	Systolic blood pressure (Fbn1^C1039G/+ mice [4])	Final absolute aortic root diameter (Fbn1^C1039G/+ mice [3]; FIG. 15, mean +/- 2 SEM)
O=S(=O)(c1cccc2cnccc12)N1CCCNCC1 [fasudil]	2.40+/−0.16	lack of rescue of aortic root growth; also recorded: failed to attenuate aortic root growth	1.73+/−0.05												
CCOC(=O)[C@H](CCc1ccccc1)N[C@@H](C)C(=O)N1CCC[C@H]1C(=O)O [enalapril]				no more effective than placebo; also recorded: failed to reduce ERK1/2 activation	no more effective than placebo	no more beneficial than placebo	do not affect p38 activation; also recorded: neither had any effect	decreased	significantly more than losartan	small reduction in JNK1 activation; also recorded: modest reduction in JNK1 activation	2.18+/−0.18 mm	marginal (P=0.05) decrease in growth	only marginally better than placebo treatment	equal reduction in systolic blood pressure	
CC(=O)S[C@@H]1CC2=CC(=O)CC[C@]2(C)[C@H]2CC[C@@]3(C)[C@@H](CC[C@@]34CCC(=O)O4)[C@H]12 [spironolactone]												no significant difference; also recorded: no significant inhibition of aortic root growth			2.19+/−0.19

From patent publication US20140148498A1, “METHODS AND COMPOSITIONS FOR THE TREATMENT OF MARFAN SYNDROME AND ASSOCIATED DISORDERS” (THE JOHNS HOPKINS UNIVERSITY, priority 2011, published 2014)
